One data set relates to FCA-treated rats. As to the kind of experiment: FCA-induced mechanical hyperalgesia (inflammatory pain). The class given is in vivo, rat. The procedure:
Protocol. […] For the assay, the methods of DeHaven-Hudkins et al., 1999, J. Pharmacol. Exp. Ther. 289:494-502 were used to determine mechanical hyperalgesia in rats 24 hours after intraplantar administration of 150 μL Freund's Complete Adjuvant (FCA). To determine paw pressure thresholds, the rats were lightly restrained in a gauze wrap and pressure was applied to the dorsal surface of the inflamed and uninflamed paw with a conical piston using a pressure analgesia apparatus (Stoelting Instruments, Wood Dale, Ill.). […] Paw pressure thresholds were determined before and at specified times after drug treatment. All test groups contained at least six animals. Protocol. A sample of (±)-beloxepin was prepared by milling the isolated (+)-beloxepin and (−)-beloxepin enantiomers together, bringing them up in solvent, and then removing the solvent (“Lot 9”). In this experiment, 30 mg/kg of (±)-beloxepin (“Lot 7”) or 30 mg/kg of the reconstituted racemic mixture (Lot 9) was administered in rats treated with FCA for 24 hours. Thirty minutes after treatment with vehicle, (±)-beloxepin, or reconstituted racemic mixture, paw pressure thresholds were determined. Thirty minutes is the time of peak mechanical antihyperalgesia of (±)-beloxepin.

For data set [1] the following is noted: cited from earlier work.
Data set [2] has as its system rat hindpaw incisional model. As to the kind of experiment: Rat hindpaw incisional pain model, tactile allodynia. Format: in vivo. Conditions: for antiallodynic effect over time: tested 30, 60, 120, 240 minutes. The procedure: Protocol. A time course experiment was performed with beloxepin in the hindpaw incision model. […] Protocol. […] Protocol.
The subject of the next data set is major depression. The settings on record: subsequent clinical trials; cited from earlier work.
The conditions of data set [3]: single dose, 10 to 500 mg; cited from earlier work.
For data set [4], the system named is animal models of depression. The settings on record: preclinical models of depression; cited from earlier work.
Data set [5] has as its system noradrenergic, histaminergic and cholinergic receptors. The settings on record: published report; cited from earlier work.
The target of another data set is T1, CYP2D6 (Homo sapiens, UniProt P10635).
T1 construct: purchased BD Bioscience
The data set is described as follows: CYP2D6 inhibition screening, recombinant enzyme, MAMC substrate. Format: in vitro ADME. As for the experimental part: Protocol. […] The source of the enzyme was microsomes containing human recombinant CYP2D6 obtained from BD Bioscience. Conversion of MAMC to 7-hydroxy-4-(aminomethyl)coumarin was measured using a PerkinElmer Fusion with a 390 nm excitation filter and a 460 nm emission filter.

The term IC50 denotes the concentration needed to halve the response being measured. One may read the inhibition as the relative decrease from the control value, in per cent.

Molecules are shown by their SMILES. “Also recorded” adds a separate entry of the source.

T1 sequence (P10635 whole entry): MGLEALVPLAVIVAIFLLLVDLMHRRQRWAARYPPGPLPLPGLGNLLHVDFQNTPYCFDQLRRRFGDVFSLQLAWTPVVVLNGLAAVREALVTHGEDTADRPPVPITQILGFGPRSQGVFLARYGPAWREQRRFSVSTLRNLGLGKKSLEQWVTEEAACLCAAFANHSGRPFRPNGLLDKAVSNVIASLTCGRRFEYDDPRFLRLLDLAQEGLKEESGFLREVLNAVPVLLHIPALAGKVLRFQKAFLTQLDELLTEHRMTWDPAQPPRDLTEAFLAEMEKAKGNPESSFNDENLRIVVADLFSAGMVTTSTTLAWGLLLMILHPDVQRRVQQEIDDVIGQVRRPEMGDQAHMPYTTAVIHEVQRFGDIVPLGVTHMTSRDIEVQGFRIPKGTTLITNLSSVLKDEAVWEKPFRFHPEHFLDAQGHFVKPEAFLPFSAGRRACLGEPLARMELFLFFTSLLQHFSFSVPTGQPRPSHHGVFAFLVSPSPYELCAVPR

On to `Cc1cccc2c1Oc1ccccc1C1(O)CCN(C)CC21` (racemic) [beloxepin, cis-1,2,3,4,4a,13b-hexahydro-2,10-dimethyldiben-[2,3:6,7]oxepino[4,5c]pyridine-4a-ol]], for which the “reversal of FCA-induced hyperalgesia” value in the data set with FCA-treated rats (30 mg/kg (FIG. 7)) is given as “nearly completely reversed hyperalgesia; also recorded: nearly complete reversal of hyperalgesia”. The mechanical antihyperalgesic efficacy in the data set on FCA-treated rats (30 mg/kg IP, 24 hours after FCA, 30 min after treatment (FIG. 9)) came to 96±16%. Besides, the “t1/2, steady state” value in data set [1] (healthy normal subjects, 50 to 800 mg) was 12 to 14 h. Also, in data set [1] (up to 800 mg/day), the “adverse effects in healthy volunteers” value is recorded as “No important adverse effects were observed”. Moreover, the “maximum hindpaw withdrawal threshold” value in data set [2] (3 mg/kg IV, 24 hours post-surgery, 30 minute time point (FIG. 14)) is reported as roughly 21 grams; in data set [2] (30 mg/kg IP, 24 hours post surgery, 30 minute time point (FIG. 12)), roughly 29 grams; in data set [2] (60 mg/kg PO, 24 hours post-surgery, 30 and 60 minute time points (FIG. 13)), roughly 24 grams. Besides, the “antiallodynic effect over time” value in data set [2] (3 mg/kg IV) is “significant antiallodynic effect at the 30 and 120 minute time points”; in data set [2] (30 mg/kg IP) it was “significant antiallodynic effect at all four time points”; in data set [2] (60 mg/kg PO) it was “significant antiallodynic effect at all four time points”. Further, the “maximum threshold, % of the threshold value for vehicle treated rats” value in data set [2] (30 mg/kg IP, 30 minute time point (FIG. 12)) was found to be 544%. Also, the “3 mg/kg IV dose lower than a dose that produced a significant respiratory or cardiovascular side effect” value in data set [2] (IV, rats) is listed as 10 fold. Also, the “efficacy for the treatment of major depression” value in the data set on major depression is “insufficient efficacy”. The t1/2 in data set [3] was 11 to 15 h. The tmax entry in data set [3] is reported as “one to four”. Also, the “sedation, motor impairment, side effects in animal tests” value in data set [4] is “did not cause sedation, motor impairment or other untoward side effects”. Moreover, in data set [5], the “affinity for noradrenergic, histaminergic and cholinergic receptors” value is “no or very weak affinity”. Further, at CYP2D6 (human recombinant CYP2D6 microsomes, read-out: CYP2D6 IC50 (initial screening, MAMC substrate)), the IC50 is 536 nM. Besides, the inhibition at 10 µM on CYP2D6 (human, probe 7-methoxy-4-(aminomethyl)-coumarin (MAMC)) is 97%.

The values above are taken from US7829576B2 (priority 2008, dated 2010).
